According to patent publication EP0110746A1, “Derivatives of 3-amino-1-phenoxy-2-propanol, their therapeutical use and process for their preparation” (LABORATOIRE L. LAFON Société anonyme dite:, priority 1982, dated 1984):

Experiments:
Solubility in water = assay type: physicochemical; conditions: read-out: soluble dans l'eau
Experimental: La base libre ainsi obtenue est traitée au reflux dans de l'éthanol anhydre par de l'éthanol chlorhydrique. Il se forme un précipité que l'on isole pour recueillir 36,3 g (rendement = 69,75%) de CRL 41 058 qui se présente sous la forme d'une poudre légèrement beige soluble à 12,5 g/1 dans l'eau. Finst (Köfler) ^= 216°C.

souris mâle [1] = assay: in vivo; conditions: mouse, ip
Experimental: (§1) On a résumé ci-après une partie des essais qui ont été entrepris avec le CRL 41 058 (produit de l'exemple 1). Dans ces essais et sauf indications contraires, le CRL 41 058, en suspension dans une solution aqueuse de gomme arabique pour des concentrations supérieures ou égales à 3 g/1, et en solution dans de l'eau distillée pour des concentrations inférieures à 3g/l, a été administré par voie intrapéritonéale sous un volume de 20 ml/kg chez la souris mâle et de 5 ml/kg chez le rat mâle.
(§2) Chez la souris màle par voie I.P., la DL-0 (dose maximale non mortelle) est supérieure à 64 mg/kg, et la DL-30 (dose à laquelle 30% des animaux meurent) est de l'ordre de 128 mg/kg. Le CRL 41 058 est moins toxique que le chlorhydrate de 1-(3,5-diméthoxy- phénoxy)-3-tertiobutylamino-2-propanol qui a une DL-50 par voie I.P. chez la souris mâle de l'ordre de 73 mg/kg.

souris mâle [2] = assay: Global behaviour and reactivities, mouse; assay type: in vivo
Experimental: as §1

rat mâle = assay: Global behaviour and reactivities, rat; assay type: in vivo
Experimental: as §1

[3] = tested on: chiens anesthésiés au nembutal; assay: Cardiovascular properties, anaesthetised dog, intraduodenal route; assay type: in vivo, chien
Experimental: Trois chiens (poids moyen : 13,6 kg) anesthésiés au nembutal reçoivent le CRL 41 058 par voie intraduodénale aux doses successives de 0,5 mg/kg, 1 mg/kg, 2,5 mg/kg, 5 mg/kg et 10 mg/kg. On mesure la pression artérielle (il est rappelé que 1 mm Hg correspond à environ 1,333 x 102 Pa), la fréquence cardiaque, le débit artériel fémoral, le débit artériel vertébral, la température rectale, et on note la coloration de la peau et la coloration de la bile recueillie par cathétérisation du cholédoque après ligature du cystique.

[4] = tested on: oreillettes droites isolées de cobaye; assay: Isolated guinea pig right atria: pA2 against chronotropic effect of isoprenaline, own inotropic and chronotropic action
Text: Sur ces oreillettes, on évalue aussi l'action inotrope et chronotrope propre du CRL 41 058; aucune moyenne n'a pu être faite, les concentrations et l'ordre d'administration des concentrations étant variables. […] Par contre, si,par exemple, la concentration de 10^-6 M est administrée après des concentrations inférieures qui ont été stimulantes, cette concentration de 10^-6 M est ino et chrono (ce phénomène pourrait laisser supposer une libération de catécholamines).

[5] = tested on: tachycardie induite par isoprénaline; assay: Anaesthetised rat: determination of the effective β-blocking dose; assay type: in vivo; conditions: iv, I.V., 0,03 à 0,3 µg/kg I.V. isoprénaline, read-out: dose qui bloque la tachycardie induite par isoprénaline
Experimental: Des rats normotendus sont anesthésiés au pentobarbital (75 mg/kg I.P.) et atropinés (1 mg/kg I.P.) On mesure leur pression artérielle carotidienne, leur fréquence cardiaque par intégration de la pression artérielle. Une veine jugulaire […] pour les injections. Si besoin est, l'anesthésie est entretenue par injection sous-cutanée de pentobarbital. 3 rats reçoivent le CRL 41 058 par voie intraveineuse, aux doses successives de 0,3 mg/kg, 1 mg/kg,3 mg/kg, 10 mg/kg et, éventuellement, 30 mg/kg. On détermine la dose qui bloque […] induite par 0,03 à 0,3μg/kg […] (dose nécessaire pour obtenir une augmentation de fréquence cardiaque de 30 à 50 bat/min). On trouve que la dose en question est de 1 mg/kg I.V.

[6] = tested on: rats normotendus anesthésiés au pentobarbital; assay: Anaesthetised rat: duration of the β-blocking action; assay type: in vivo
Experimental: Des rats normotendus sont anesthésiés au pentobarbital (75 mg/kg I.P.) et atropinés (1 mg/kg I.P.) On mesure leur pression artérielle carotidienne, leur fréquence cardiaque par intégration de la pression artérielle. Une veine jugulaire est cathétérisée pour les injections. Si besoin est, l'anesthésie est entretenue par injection sous-cutanée de pentobarbital.
5 rats reçoivent 1 mg/kg de CRL 41 058 par voie I.V. 0n observe que : • - la pression artérielle, diastolique n'est pas modifiée, elle reste voisine de 91 mm Hg; et • - la fréquence cardiaque passe, en 5 min, de 345 à 290 bat/min (soit -16%), la bradycardie maximale est obtenue au temps 20 min : 280 bat/min (soit -19%). Après 90 min, la fréquence cardiaque est à 307 bat/min (soit -11%).

[7] = tested on: rats génétiquement hypertendus; assay: Awake genetically hypertensive rat: arterial pressure and heart rate; assay type: in vivo; conditions: 20 mg/kg V.B.
Experimental: 6 rats génétiquement hypertendus, à cathéter artériel fémoral implanté, reçoivent le CRL 41 058 à la dose de 20 mg/kg V.B.

homme = assay: Clinical trials in man; assay type: in vivo; conditions: daily dose 40 à 50 mg in 2 à 3 intakes, 2 à 6 semaines
in vivo = assay: in vivo; set-up: species or system souris; conditions: mouse, ip
Experimental: as §1, §2

## COc1cc(OC)c(Cl)c(OCC(O)CNC(C)(C)C)c1 (stereo not shown) [CRL 41 058, chlorhydratede 1-(2-chloro-3,5-diméthoxyphénoxy)-3-tertiobutylamino-2-propanol]
Solubility in water
  solubility: 12.5 mg/mL
Souris mâle [1]
  DL-0 (dose maximale non mortelle): > 64 mg/kg
  DL-30 (dose à laquelle 30% des animaux meurent): ~128 mg/kg
Souris mâle [2]; I.P., 0,5 mg/kg, 2 mg/kg et 8 mg/kg
  symptômes: ne provoquent pas de symptômes nets
Souris mâle [2]; I.P., 32 mg/kg
  symptômes: sédation inconstante (chez 2 animaux sur 3) et fugace (30 min), une dyspnée (chez 2 animaux sur 3) pendant 15 à 30 min
Rat mâle; I.P., 0,25 mg/kg, 1 mg/kg et 4 mg/kg
  symptômes: ne provoquent pas de symptômes nets
Rat mâle; I.P., 16 mg/kg
  symptômes: sédation fugace (30 min) et déprime la respiration (chez 2 animaux sur 3) pendant 30 min
[3]; 100 µg/kg isoprénaline, two dogs, after cumulative dose 19 mg/kg
  effet tachycardisant de l'isoprénaline: inférieur à l'effet tachycardisant de 0,3µg/kg d'isoprénaline témoin
[3]; Canis lupus familiaris, intraduodenal, voie intraduodénale, successive doses 0,5 to 10 mg/kg, read-out: dose bradycardisante
  minimal effective dose: ≥ 0.5 mg/kg
[3]; after 1 µg/kg noradrénaline, control 280 mm Hg
  pression artérielle systolique: 221 mm Hg
[3]; after 3 µg/kg isoprénaline, cumulative dose 19 mg/kg, control 48 mm Hg
  pression artérielle diastolique: 119 mm Hg
[3]; after 3 µg/kg isoprénaline, cumulative dose 19 mg/kg, control 245 bat/min
  fréquence cardiaque: 110 bat/min
[3]; voie intraduodénale
  coloration de la peau et celle de la bile: ne sont pas modifiées
  débit artériel vertébral: n'est pas vasodilatateur vertébral
  températures rectale et cutanée: varient peu
[3]; voie intraduodénale, from 0,5 mg/kg
  action sur la pression artérielle: sans aucune action nette
[3]; voie intraduodénale, flow decreases in the two other dogs
  augmentation du débit fémoral: présente seulement chez un chien sur trois
[4]; Cavia porcellus, 0.25 h, 15 min de contact, mean of 5 atria, read-out: pA2 vis-à-vis de l'effet chronotrope de l'isoprénaline (converted)
  Kb: 6.17 nM
[4]; maximum at first concentration used, 3 x 10^-8 à 10^-6 M
  action inotrope et chronotrope propre: effet ino + et chrono+
[5]
  minimal effective dose: 1 mg/kg
[6]; 0,03 µg/kg I.V. isoprénaline after 1 mg/kg I.V., 5 min
  tachycardie à l'isoprénaline: totalement inhibée
[6]; 0,03 µg/kg I.V. isoprénaline after 1 mg/kg I.V., 20 min
  tachycardie à l'isoprénaline, part de sa valeur reprise: 50%
[6]; 0,03 µg/kg I.V. isoprénaline after 1 mg/kg I.V., 60 min
  tachycardie à l'isoprénaline, part de sa valeur restaurée: 92%
[6]; 0,03 µg/kg I.V. isoprénaline after 1 mg/kg I.V., at 5 min and during 2 h
  variation de pression artérielle à l'isoprénaline par rapport à la variation témoin: -69%
[6]; 0,03 µg/kg I.V. isoprénaline after 1 mg/kg I.V., at 5 min and during 2 h, control -26 mm Hg
  variation de pression artérielle à l'isoprénaline: +8 mm Hg
[6]; 1 mg/kg I.V., 5 min
  fréquence cardiaque, variation: -16%
[6]; 1 mg/kg I.V., 5 min, baseline 345
  fréquence cardiaque: 290 bat/min
[6]; 1 mg/kg I.V., 20 min
  fréquence cardiaque (bradycardie maximale): 280 bat/min
  fréquence cardiaque, variation (bradycardie maximale): -19%
[6]; 1 mg/kg I.V., 90 min
  fréquence cardiaque: 307 bat/min
  fréquence cardiaque, variation: -11%
[6]; 1 mg/kg I.V., not modified
  pression artérielle diastolique: ~91 mm Hg
[7]; 5 min, baseline 382
  fréquence cardiaque: 322 bat/min
[7]; 2 h
  fréquence cardiaque (bradycardie maximale): 305 bat/min
[7]; 6 h, baseline 191
  pression artérielle: 167 mm Hg
[7]; 7 h
  fréquence cardiaque: 322 bat/min
[7]; 24 h
  fréquence cardiaque: 330 bat/min
  pression artérielle: a repris sa valeur témoin
homme
  action β-bloquante chez l'homme: confirmé chez l'homme l'intérêt de l'action β-bloquante

## COc1cc(OC)cc(OCC(O)CNC(C)(C)C)c1 (stereo not shown) [chlorhydratede 1-(3,5-diméthoxy-phénoxy)-3-tertiobutylamino-2-propanol, reference compound]
In vivo
  LD50: ~73 mg/kg
